Measurements as given in the NIST ThermoML archive (doi:10.1021/je0495785).

Legend:
[1] = molar enthalpy of vaporization or sublimation; settings: Liquid, DSC
[2] = molar heat capacity at constant pressure; settings: 101.33 kPa, Small sample (50 mg) DSC
[3] = for Normal melting temperature: Crystal, DTA; for Normal boiling temperature: Liquid, not specified, probably DSC
[4] = Molar enthalpy of transition or fusion; settings: Crystal; DSC

Cc1cccc(N(c2cccc(C)c2)c2cccc(C)c2)c1 [3-methyl-N,N-bis(3-methylphenyl)benzenamine]
Settings	molar enthalpy [kcal/mol]
[1], 567.99 K	8.98

[2]
Settings	molar heat capacity at constant pressure [J/K/mol]
240 K, Crystal	1455.4
245 K, Crystal	1383
250 K, Crystal	1322.8
255 K, Crystal	1274.6
260 K, Crystal	1238.6
265 K, Crystal	1214.8
270 K, Crystal	1203
275 K, Crystal	1203.4
280 K, Crystal	1216
285 K, Crystal	1240.6
290 K, Crystal	1277.4
295 K, Crystal	1326.3
300 K, Crystal	1387.4
306 K, Crystal	1476.7
336 K, Liquid	1250.8
341 K, Liquid	1249.7
346 K, Liquid	1249.5
351 K, Liquid	1250.1
356 K, Liquid	1251.5
361 K, Liquid	1253.8
366 K, Liquid	1257
371 K, Liquid	1261
376 K, Liquid	1265.8
381 K, Liquid	1271.5

Settings	Molar enthalpy of transition or fusion [kcal/mol]	Normal boiling temperature [°C]	Normal melting temperature [°C]
[3]	–	294.84	39.81
[4]	3.12	–	–

Cc1ccc(N(c2ccc(C)cc2)c2cccc(C)c2)cc1 [3-methyl-N,N-bis(4-methylphenyl)benzenamine]
Settings	molar enthalpy [kcal/mol]
[1], 589.09 K	18.1

[2]
Settings	molar heat capacity at constant pressure [J/K/mol]
298 K, Crystal	417.01
303 K, Crystal	369.25
308 K, Crystal	351.52
313 K, Crystal	363.76
318 K, Crystal	406.01
323 K, Crystal	478.26
325 K, Crystal	515.56
339 K, Liquid	442.71
343 K, Liquid	440.93
348 K, Liquid	438.63
353 K, Liquid	436.24
358 K, Liquid	433.8
363 K, Liquid	431.3
368 K, Liquid	428.71
373 K, Liquid	426.07
378 K, Liquid	423.34
383 K, Liquid	420.55
388 K, Liquid	417.68
393 K, Liquid	414.74

Settings	Molar enthalpy of transition or fusion [kcal/mol]	Normal boiling temperature [°C]	Normal melting temperature [°C]
[3]	–	315.94	56.70
[4]	5.19	–	–

Cc1ccc(N(c2cccc(C)c2)c2cccc(C)c2)cc1 [3-methyl-N-(3-methylphenyl)-N-(4-methylphenyl)benzenamine]
Settings	molar enthalpy [kcal/mol]
[1], 547.3 K	16.6

molar heat capacity at constant pressure [J/K/mol], [2]
Settings	330 K	335 K	340 K	365 K	369 K	372 K
Crystal	114.18	117.34	98.12	–	–	–
Liquid	–	–	–	143.7	141.06	137.86

Settings	Molar enthalpy of transition or fusion [kcal/mol]	Normal boiling temperature [°C]	Normal melting temperature [°C]
[3]	–	274.1	89.50
[4]	6.31	–	–

Cc1ccc(N(c2ccc(C)cc2)c2ccc(C)cc2)cc1 [tri-tolylamine]
Settings	molar enthalpy [kcal/mol]
[1], 574.04 K	17.3

Settings	Molar enthalpy of transition or fusion [kcal/mol]	Normal boiling temperature [°C]	Normal melting temperature [°C]
[3]	–	300.89	115.59
[4]	4.77	–	–
